The record followed here is a melting point compilation (Tetko et al.; mined from patent text by program, amines drawn as free bases though some values may be those of a salt).

In turn, `O=C(CN1CN(OC(F)(F)F)C=N1)c1ccccc1` displayed a melting point of 98 to 101 °C.
As for `CC(=C1SC(=O)NC1=O)c1ccc(OCCOc2c(-c3ccc(F)cc3)n(C)c3ccccc3c2=O)c(F)c1`, the figure is 220 to 222 °C; as for `COC(=O)n1cc2c(c1)C(OC(C)=O)N=C(c1ccccc1Cl)c1cc(Cl)ccc1-2` (stereo not drawn), 175 to 177 °C.
The value for `O=Cc1cccc(C(CC2=NCCN2)c2ccccn2)c1` (stereo not drawn) was 138 to 139 °C; that for `OCc1conc1-c1ccc(F)c(Br)c1` was 93 to 94 °C.
The value for `COc1ccc(C(Sc2c(N)ccc3ccccc23)C(O)C(=O)O)cc1` (stereo not drawn) was 143 to 145 °C; that for `CCOC(=O)c1ccc2[nH]cc(C3CCN(C)CC3)c2c1` was 155 to 157 °C.
In turn, `Cc1nc(Cl)c2c(c1O)COC2(c1ccccc1)c1cccc(Cl)c1Cl` (stereo not drawn) yielded a melting point of 221 °C.
As to `CCCCC(=N)NC(=O)Nc1ccc(C)cc1`, the melting point is 159 to 160 °C.
The molecule `CC[C@H](C)[C@H](Nc1nc(OC)ns1)C(=O)N1CCC[C@H]1C(=O)OC` registered a melting point of 129 to 130 °C.
The value for `CCSc1cc(C)nc(SCC)c1NC(=O)CN1CCN(CCSc2nc3cccc([N+](=O)[O-])c3o2)CC1` was 50 to 52 °C.
Molecule `Cc1nc(C)c(C(=O)OCC2CCCO2)c(-c2cccc([N+](=O)[O-])c2)c1C(=O)OCC1CCCO1` (stereo not drawn) gave a melting point of 75 to 77 °C.
The value for `CCOC(=O)O[C@H](CCCc1ccc(OCc2nc(-c3ccccc3)sc2C)cc1)C(N)=O` was 130 to 131 °C.
`N#Cc1ccc(C[C@]23C[C@@H](O)CN2C(=O)N(c2cc(Cl)nc(Cl)c2)C3=O)cc1` showed a melting point of 97.6 °C.
As for `CCC(=O)c1ccsc1N(C)C(C)=O`, the figure is 78.5 to 79.5 °C; as for `CCCCCCCCCCCCCCCCNC(=O)C=CC(=O)O`, 46 to 49 °C; as for `Cc1ccc(N=c2sc3ncccc3c(=O)n2C)cc1`, 144 °C.
Molecule `COC(=O)c1ccc(=O)n(CCN(C)C(=O)c2cccnc2)c1` came in with a melting point of 120 to 122 °C.
In the case of `C[Si](Cn1ncnc1I)(c1ccc(F)cc1)c1ccc(F)cc1`, the melting point lay within 102 to 104 °C.
In turn, `Cc1[nH]c(=S)n(Nc2cccc(Cl)c2)c1C(=O)O` showed a melting point of 166 to 168 °C.
As for `CC1(OC(=O)C=CC2C(C(=O)OC(C#N)c3cccc(Oc4ccccc4)c3)C2(C)C)CCC1` (stereo not drawn), the figure is 78 °C; as for `O=C1c2c(Br)cccc2-n2cnc(-c3noc(CCl)n3)c2[C@@H]2CCN12`, 210 to 211 °C; as for `Clc1ccc(Nc2nnc(NCc3ccncc3)c3ccccc23)cc1`, 233 to 236 °C.
`COc1ccc(-c2c[nH]c(S)n2)cc1`: the melting point stood at 204 °C.
As for `COC(=O)CCCC(=O)N(C)CCc1c[nH]c2ccccc12`, the figure is 101 to 102 °C.
As for `CCOC(=O)Cn1ncc(-c2ccccc2)c1-c1ccccc1`, the figure is 79 to 81 °C; as for `COC(C)c1cc(N2C(=O)C3=C(CCCC3)C2=O)c(F)cc1Cl` (stereo not drawn), 141 to 144 °C; as for `[N-]=[N+]=CC(=O)OC/C=C/c1ccc(NC(=O)OCc2ccccc2)cc1F`, 93 to 96 °C.
Consider `OC1CSC(Oc2cnc(-c3ccncc3)c(F)c2)C(O)C1O` (stereo not drawn), for which the melting point worked out at 192 °C.
With `CCCN(CCC)CCCn1cc(Br)c2c3c(c(-c4ccccc4Cl)cc21)C(=O)NC3=O`, the melting point lay within 173 to 175 °C.
As for `CC(=O)Nc1ccc(-c2ccc3c(c2)C(C)(C)OC(=O)N3)cc1F`, the figure is 245 to 247 °C; as for `Cc1nc(C(O)C2CCc3c(C)c4ccccc4n3C2=O)c[nH]1` (stereo not drawn), 210 to 211 °C; as for `CCc1nccn1-c1nc(-c2ccc(Cl)cc2)c(CCC(=O)O)o1`, 197 to 199 °C.
Molecule `O=C(O)c1ccc2nc(S)[nH]c2c1` came in with a melting point of over 250 °C.
In the case of `OCc1c(CN2CCN(c3ccc(Cl)cc3Cl)CC2)nc2ccc(Cl)cn12`, the melting point lay within 165 to 166 °C.
In the case of `Cc1cccc2nn(-c3cc(O)ccc3O)nc12`, the melting point was in the range of 202 to 203 °C.
The value for `O=Cc1cc2ccc3c4ccccc4ccc3c2s1` was 209 to 210 °C.
The value for `O=C1N[C@H](Cc2ccc(C(F)(F)F)cc2)[C@H](c2cccc(F)c2)O1` (racemic) was 143 to 144 °C.
`CCCCCCCCCCCCCCCCCCOc1ccc(NC(=O)c2ccc(OC(C)=O)cc2)cc1` gave a melting point of 154 °C.
On to `Cn1c(SC(C(=O)O)c2ccccc2)nc2ccccc21` (stereo not drawn), for which the melting point lay within 157 to 159 °C.
`O=Cc1ccc([N+](=O)[O-])cn1`: the melting point lay in the range of 66 to 67 °C.
Turning to `O=CNC1=NN(c2cccc(Cl)c2)CC1`, the melting point fell in the range of 143 to 145 °C.
For `Cc1ccc2c(c1)cc(C(=O)OCc1ccccc1)n2CC(=O)OC(C)(C)C`, the melting point was 80 to 82 °C.
As for `OCc1cnc2sc3c(n12)CCCCC3`, the figure is 145 to 146 °C; as for `O=c1cnc2c(NC(CO)CO)nc(SCc3cccc(Cl)c3F)nc2[nH]1`, 218 to 220 °C.
The value for `CC(C)CCn1c(=O)c(=NNc2ccccc2)c(=O)n(-c2ccccc2)c2ccccc21` was 143 °C; that for `CC(C)NCC(O)COc1ccc2c(=O)cc(-c3cc(OCc4ccccc4)cc(OCc4ccccc4)c3)oc2c1` (stereo not drawn) was 173 to 174 °C.
`COc1ccnc(CCc2nc3cc(-c4ccc(S(=O)(=O)N(C)C)cc4)cnc3[nH]2)c1` displayed a melting point of 217 to 218 °C.
The molecule `COc1ccc(C=C2CCN(C(=O)c3nc4ccc(O)cc4[nH]3)CC2)cc1` yielded a melting point of 208 °C.
As for `CC(=O)Nc1ccccc1OC(CCc1ccc(Cl)cc1)Cn1ccnc1` (stereo not drawn), the figure is 151 to 152 °C; as for `Brc1cnc2c(c1)ncn2-c1cccc(-n2ccnc2)c1`, 236 to 238 °C; as for `O=[N+]([O-])c1c(Br)nn(CCO)c1NCCO`, 132 to 134 °C.
Turning to `Cc1nc2c(N)nc3c(c2n1CC(C)C)CCCC3`, the melting point fell in the range of 170 to 172 °C.
`CCOC(=O)c1cc2cc(OCCOC)cc(NS(=O)(=O)c3cccs3)c2[nH]1` displayed a melting point of 106 to 107 °C.
As for `Nc1nc2c(ncn2CCC(COC(=O)n2ccnc2)COC(=O)n2ccnc2)c(=O)[nH]1`, the figure is over 300 °C; as for `CON(C)C(=O)Nc1ccc(OCc2ccc(C(C)C)cc2)cc1`, 87.5 to 88 °C.
As for `CC(C)(C)OC(=O)CN1C(=O)C(N2C(=O)c3ccccc3C2=O)CSCC1c1cccs1` (stereo not drawn), the figure is 211 to 212 °C; as for `CCCCC(CC)Cn1c2ccc(Br)cc2c2cc(Br)ccc21` (stereo not drawn), 62.4 to 63.6 °C.
Molecule `C[C@@H](S[C@H]1CO[C@H](/C=C/C=C/c2ccc(OCC(F)(F)C(F)F)cc2)OC1)[C@](O)(Cn1cncn1)c1ccc(F)cc1F` had a melting point of 75 to 85 °C.
In the case of `COc1nc(OC)c(C(C)C)c(C(=O)c2cc(C)cc(C=CC#N)c2)n1`, the melting point is 144 to 145 °C.
As for `CCOC(=O)c1ccc([N+](=O)[O-])cc1F`, the figure is 70 to 73 °C.
The value for `CCCc1cc(=O)oc2c(C(=O)CC)c(O)cc(O)c12` was 244 to 246 °C.
In turn, `COC(=O)CCCc1ccc(CNC(=O)C2Cc3ccccc3N2S(=O)(=O)c2ccc(-c3cccc(C(F)(F)F)c3)cc2)cc1` (stereo not drawn) returned a melting point of 55 °C.
For the molecule `COc1ccc(S(=O)(=O)N2CCc3cccc(-c4ccc(N(C)C)cc4)c32)cc1`, the melting point was in the range of 178 to 180 °C.
The value for `CS(=O)(=O)CCN1C(=O)CN=C(c2ccccc2)c2cc(Cl)ccc21` was 135 to 156 °C.
The value for `ClCCOc1ccc(C2=C(c3ccccc3)CCCc3ccccc32)cc1` was 171 to 172 °C.
`CCOCc1nc2c(N)nc3cc(Br)cnc3c2n1CCCON=C(C)C`: the melting point fell in the range of 128 to 130 °C.
Consider `CCn1c(=O)c2[nH]c(/C=C/c3ccc(Br)cc3)nc2n(CC)c1=O`, for which the melting point is over 270 °C.
In turn, `Oc1cc(O)cc(Oc2nnn[nH]2)c1` gave a melting point of 191 to 193 °C.
The value for `COC(=O)c1cc([N+](=O)[O-])c[nH]1` was 196 to 197 °C; that for `Cc1nc(Cl)c([N+](=O)[O-])c(NCCNC(=O)OC(C)(C)C)c1C` was 110 to 112 °C; that for `CC1CCCCN1C(=O)COc1nc(C(Cl)(Cl)Cl)ns1` (stereo not drawn) was 88 °C.
The molecule `COC(=O)c1ccc(CN2CCN(c3nc(C)c(C(C)=O)s3)C2=O)cc1` registered a melting point of 174 to 175 °C.
With `C/C=C/C/C=C/CCCCCCCC(=O)Nc1nc(CC(=O)O)cs1`, the melting point fell in the range of 101 to 102 °C.
Regarding `COCOc1cc(OCOC)c(C(=O)C=Cc2cc(OC)c(OCOC)c(OC)c2)c(O)c1CC=C(C)C`, the melting point lay within 91.2 to 92 °C.
As for `Cc1ccc(F)c(-c2ccc(S(=O)(=O)N3c4ccccc4CC3C(=O)NCCOc3ccc(CC(=O)O)cc3)cc2)c1` (stereo not drawn), the figure is 82 to 85 °C.
Consider `FC(=C(Cl)Cl)c1ccc(-c2ccccc2)s1`, for which the melting point is 67 to 68.5 °C.
As for `COC1C=Cc2ccccc2C1(Nc1ccccc1C)C(N)=S` (stereo not drawn), the figure is 162 °C; as for `CCOC(=O)C1=C(COCCNC(=O)N2CCNC2=O)NC(C)=C(C(=O)OC)C1c1ccccc1Cl` (stereo not drawn), 145 °C; as for `COCCN(C)c1nccc(Oc2ccc(NC(=O)c3cc(F)cc(N4CCCCC4)c3)c3ccccc23)n1`, 81 to 82 °C.
Molecule `COc1cc(C)nc(NC(=O)NS(=O)(=O)N(C)S(C)(=O)=O)n1` showed a melting point of 118 to 120 °C.
As for `O=C1Nc2ccc(F)cc2C1CCCCN1CCN(c2cc(Cl)cc3c2OCCO3)CC1` (stereo not drawn), the figure is 146 to 148 °C; as for `CC(=O)Nc1ccc(CCC2(c3ccccc3)CC(O)=CC(=O)O2)cc1` (stereo not drawn), 155 to 160 °C.
As for `O=C(O)CC(Sc1cccs1)C(=O)O` (stereo not drawn), the figure is 136 to 138 °C.
As to `COc1ccc(CN(C)CCc2ccc(NC(=O)c3cccc4c(=O)c5ccccc5n(C)c34)cc2)cc1OC`, the melting point was found to be 182 °C.
The molecule `C=CCOc1cc(C(=O)OCC)nc2ccccc12` gave a melting point of 71 to 72 °C.
Turning to `CCn1ccnc1CNC(=O)c1[nH]c2ccc(Cl)cc2c1S(=O)(=O)c1ccccc1`, the melting point fell in the range of 204 to 206 °C.
`Cc1c(C)c2c(c(Br)c1N)C(c1ccc(C(C)C)cc1)CO2` (stereo not drawn) returned a melting point of 191 to 193 °C.
